Values after ≈ are worked out from the molar mass of the structure shown. Read-outs that look alike come from different tables or passages of the source.
Columns and labels:
L1210 leukemia cells [1] = assay: Inhibitory effect on growth of L1210 cultivated leukemic cells of mice; format: cell-based; conditions: Mus musculus
Description: (§1) A. Inhibitory Effect on Growth, DNA Synthesis and RNA Synthesis of L1210 Cultivated Leukemic Cells of Mice
For example, L1210 cells were inoculated in a concentration of 5×10^4 cells/ml in an RPMI 1640 culture medium (Roswell Park Memorial Institute 1640) containing 20% calf serum and, simultaneously, representative compounds of the present invention were added in a concentration of 0.1 and 0.5 μg/ml. The cells were cultivated in a CO2 generator at 37° C. The 50% growth inhibitory concentration with respect to a control group was then determined.

[2] = tested on: L1210 leukemia cells, RNA synthesis; assay: Inhibition of RNA synthesis (14C-uridine incorporation) of L1210 cultivated leukemic cells; format: cell-based; conditions: Mus musculus, L1210, 1 h; for IC50: read-out: IC50 RNA synthesis; for IC90: read-out: IC90 RNA synthesis
Description: as §1
(§2) Separately, the above L1210 cultivated cells were suspended in a concentration of 5×10^5 cells/ml in an RPMI 1640 medium containing 10% calf serum and cultivated for 1 to 2 hours in a CO2 incubator at 37° C. Then, representative test compounds were added in various concentrations, and 15 minutes later, ^14 C-uridine (0.05 μCi/ml) or ^14 C-thymidine (0.05 μCi/ml) were added. The cells were incubated at 37° C. for 60 minutes. A 10% aqueous trichloroacetic acid solution was added to the incubation medium to stop the reaction and simultaneously precipitate acid-insoluble matter. The acid-insoluble matter was washed three times with a 5 to 10% aqueous solution of trichloroacetic acid and then dissolved in formic acid. The radioactivity of the acid-insoluble matter was measured. From the ratio of incorporated radiation to that of a control group, the concentrations which inhibited radiation by 10%, 50% and 90% respectively were measured.

[3] = tested on: L1210 leukemia cells, DNA synthesis; assay: Inhibition of DNA synthesis (14C-thymidine incorporation) of L1210 cultivated leukemic cells; format: cell-based; conditions: Mus musculus, L1210, 1 h; for IC50: read-out: IC50 DNA synthesis; for IC90: read-out: IC90 DNA synthesis
Description: as §1, §2

L1210 leukemia cells [4] = assay: Antitumor activity on CDFI mouse leukemia induced by mouse L1210 leukemia cells; format: in vivo, CDFI mice; parameters: key to Toxicity: *: Toxicity-; conditions: intraperitoneal, 10 consecutive days
Description: B. Antitumor Activity on CDFI Mouse Leukemia Induced by Mouse L1210 Leukemia cells
L1210 leukemia cells of mice were intraperitoneally transplanted in an amount of 1×10^5 cells/mouse in CDFI mice. Starting 24 hours after the transplantation, each of the test compounds was intraperitoneally administered to the mice for 10 consecutive days. the survival rate (T/C, %) was calculated in comparison with a control group (to which physiological saline was administered).

[5] = L1210, 24 h, 1 day later, RPMI 1640, 20% calf serum, 37° C., read-out: IC50 growth, 1 day later
[6] = L1210, 48 h, 2 days later, RPMI 1640, 20% calf serum, 37° C., read-out: IC50 growth, 2 days later
[7] = 14C-uridine, 60 minutes, 37° C.
[8] = 90% inhibition, 14C-uridine, 60 minutes, 37° C.
[9] = 14C-thymidine, 60 minutes, 37° C.
[10] = 90% inhibition, 14C-thymidine, 60 minutes, 37° C.
[11] = L1210, 24 h, read-out: IC50 growth, 1 day later
[12] = L1210, 48 h, read-out: IC50 growth, 2 days later

IC50 (L1210 leukemia cells [1]; [5]) | IC50 (L1210 leukemia cells [1]; [6]) | IC50 [2, 7] | IC90 [2, 8] | IC50 [3, 9] | IC90 [3, 10] | Compound | IC50 (L1210 leukemia cells [1]; [11]) | IC50 (L1210 leukemia cells [1]; [12]) | Survival rate (T/C, %) (L1210 leukemia cells [4]; 0.15 mg/kg/day) | Survival rate (T/C, %) (L1210 leukemia cells [4]; 0.3 mg/kg/day) | Survival rate (T/C, %) (L1210 leukemia cells [4]; 0.6 mg/kg/day) | Survival rate (T/C, %) (L1210 leukemia cells [4]; 1.25 mg/kg/day) | Survival rate (T/C, %) (L1210 leukemia cells [4]; 2.5 mg/kg/day) | IC50 [2] | IC90 [2] | IC50 [3] | IC90 [3] | also measured
0.02 µg/mL (≈ 0.0389 µM) | 0.006 µg/mL (≈ 0.0117 µM) | 1.2 µg/mL (≈ 2.34 µM) | 6 µg/mL (≈ 11.7 µM) | 1.6 µg/mL (≈ 3.12 µM) | 10 µg/mL (≈ 19.5 µM) | C[C@@H]1O[C@@H](O[C@H]2C[C@](O)(C(=O)CO)Cc3c(O)c4c(c(O)c32)C(=O)c2ccccc2C4=O)C[C@H](N)[C@@H]1O [4-Demethoxy-adriamycin, reference compound] |  |  |  |  |  |  |  |  |  |  |  | 
0.01 µg/mL (≈ 0.0201 µM) | 0.005 µg/mL (≈ 0.0101 µM) | 0.14 µg/mL (≈ 0.281 µM) | 1.4 µg/mL (≈ 2.81 µM) | 0.08 µg/mL (≈ 0.161 µM) | 1.2 µg/mL (≈ 2.41 µM) | CC(=O)[C@]1(O)Cc2c(O)c3c(c(O)c2[C@@H](O[C@H]2C[C@H](N)[C@H](O)[C@H](C)O2)C1)C(=O)c1ccccc1C3=O [4-Demethoxy-daunomycin, reference compound] |  |  |  |  |  |  |  |  |  |  |  | 
0.005 µg/mL (≈ 0.00948 µM) |  |  |  |  |  | COc1cccc2c1C(=O)c1c(cc3c(c1O)[C@@H](O[C@H]1C[C@H](N)[C@H](O)[C@H](C)O1)C[C@](O)(C(=O)CO)C3)C2=O [11-Deoxy-adriamycin, reference compound] |  |  |  |  |  |  |  |  |  |  |  | 
0.05 µg/mL (≈ 0.0977 µM) |  |  |  |  |  | COc1cccc2c1C(=O)c1c(cc3c(c1O)[C@@H](O[C@H]1C[C@H](N)[C@H](O)[C@H](C)O1)C[C@](O)(C(C)=O)C3)C2=O [11-deoxy-daunomycin, reference compound] |  |  |  |  |  |  |  |  |  |  |  | 

Further lines, the molecule ahead of its results:

Compound | IC50 (L1210 leukemia cells [1]; [5]) | IC50 (L1210 leukemia cells [1]; [6]) | IC50 [2, 7] | IC90 [2, 8] | IC50 [3, 9] | IC90 [3, 10] | IC50 (L1210 leukemia cells [1]; [11]) | IC50 (L1210 leukemia cells [1]; [12]) | Survival rate (T/C, %) (L1210 leukemia cells [4]; 0.15 mg/kg/day) | Survival rate (T/C, %) (L1210 leukemia cells [4]; 0.3 mg/kg/day) | Survival rate (T/C, %) (L1210 leukemia cells [4]; 0.6 mg/kg/day) | Survival rate (T/C, %) (L1210 leukemia cells [4]; 1.25 mg/kg/day) | Survival rate (T/C, %) (L1210 leukemia cells [4]; 2.5 mg/kg/day) | IC50 [2] | IC90 [2] | IC50 [3] | IC90 [3] | also measured
COc1cccc2c1C(=O)c1c(O)c3c(c(O)c1C2=O)C[C@@](O)(C(=O)CO)C[C@@H]3O[C@H]1C[C@H](N)[C@H](O)[C@H](C)O1 [Adriamycin] |  |  |  |  |  |  | 0.05 µg/mL (≈ 0.092 µM) | 0.03 µg/mL (≈ 0.0552 µM) | 130% | 147% | 239% | 272% | 351% | 0.68 µg/mL (≈ 1.25 µM) | 6.5 µg/mL (≈ 12 µM) | 1.65 µg/mL (≈ 3.04 µM) | 4.5 µg/mL (≈ 8.28 µM) | Survival rate (T/C, %) (L1210 leukemia cells [4]; 5 mg/kg/day): 189%; Toxicity (L1210 leukemia cells [4]; 5 mg/kg/day): *
COc1cccc2c1C(=O)c1c(O)c3c(c(O)c1C2=O)C[C@@](O)(C(C)=O)C[C@@H]3O[C@H]1C[C@H](N)[C@H](O)[C@H](C)O1 [Daunomycin, reference compound] |  |  |  |  |  |  | 0.049 µg/mL (≈ 0.0929 µM) | 0.036 µg/mL (≈ 0.0682 µM) | 118% | 132% | 145% | 191% | 138% | 0.18 µg/mL (≈ 0.341 µM) | 1.8 µg/mL (≈ 3.41 µM) | 0.3 µg/mL (≈ 0.569 µM) | 1.8 µg/mL (≈ 3.41 µM) | Survival, in words (dead through toxicity) (L1210 leukemia cells [4]; 5 mg/kg/day): dead
